Laboratory results published in patent publication US11236059B2, “Targeted cytotoxic ratjadone derivatives and conjugates thereof” (HELMHOLTZ-ZENTRUM FUER INFEKTIONSFORSCHUNG GMBH, priority 2017, dated 2022).
Where two headings read alike, the source gives them in different places.

Tests used:
[1] = tested on: A549 (DSMZ ACC 107) cells; assay: cells; assay type: cell-based; conditions: Homo sapiens, A549, 120 h
Procedure: (§1) 60 μL of serial dilutions of the test compound were given to 120 μL of suspended cells (50.000/mL) in wells of 96-well plates. After 5 days of incubation growth inhibition (IC50) was determined using an MTT assay.^[64]

[2] = tested on: MCF-7 (DSMZ ACC 115) cells; assay: cells; assay type: cell-based; conditions: Homo sapiens, MCF7, 120 h
Procedure: as §1

[3] = tested on: SKOV-3 (DSMZ ATCC HTB 77) cells; assay: cells; assay type: cell-based; conditions: Homo sapiens, SK-OV-3, 120 h
Procedure: as §1

CRM1 = biological target: T1, CRM1 (Homo sapiens, UniProt O14980); assay: Monitoring export inhibitory activity (translocation biosensor, HeLaRevBio cells); assay type: cell-based
T1 construct: HeLa cells stably expressing a fluorescent translocation biosensor (HeLaRevBio); endogenous in cells; host or cells: HeLa (HeLaRevBio in A7; HeLa in A8)
Procedure: Export inhibitory ability of compounds was evaluated with the translocation biosensor system. This cellular assay depends on a recombinantly expressed fusion protein consisting of a nuclear localization signal (SV40-NLS), glutathione S-transferase (GST), green fluorescent protein (GFP) and a nuclear export signal (HIV1-RevNES). Due to the two transport signals (NLS/NES), the biosensor is permanently shuttling between nucleus and cytoplasm but resides prominently in the cytoplasm due to a comparatively stronger NES. Export inhibiting compound induce a nuclear accumulation of the GFP-signal^[65,66] Cell lines were maintained as recommended by the American Type Culture Collection in DMEM containing 5% glutamine (Thermo Fisher Scientific, Waltham, USA) supplemented with 10% FBS (Thermo Fisher Scientific, Waltham, USA). For quantifying the nuclear export inhibitory effect, HeLa cells stably expressing a fluorescent translocation biosensor (HeLaRevBio)^[67] were seeded into black 96 well μclear plates (Greiner, Germany). They next day compounds were added covering an appropriate concentration range. After 1h of incubation, cells were fixed in 4% PFA for 10 min and permeabilized with 0.1% Triton X 100 in PBS for 5 min. After washing with PBS nuclei were labeled with Hoechst H33342 (30 min 10 μg/ml). The intracellular distribution of the biosensor-dependent GFP signal was quantitatively evaluated with the high content imaging system ImageXpress MicroXLS (Molecular Devices, Sunnyvale, USA). By using the translocation enhanced application module (Molecular Devices, Sunnyvale, USA) the GFP-intensity was quantified in the cytoplasm and nuclear region. As final readout the difference of Mean Inner and Mean Outer Intensity was calculated. IC50s of nuclear export inhibition were calculated using Sigma Plot with four parameter logistics curve regression (Systat Software GmbH, Erkrath, Germany). […] The following day compounds were added at 125 nM final concentration.

[4] = tested on: KB 3.1 (DSMZ ACC 158) cells; assay: cells; conditions: Homo sapiens, KB 3-1, 120 h
[5] = tested on: KB 3.1 (DSMZ ACC 158) cells; assay: Cell proliferation assay under folate free conditions; assay type: cell-based; conditions: RPMI-medium without folic acid + 10% dialyzed fetal calf serum; MTT assay after 1, 2 and 5 days (day of the value not given); read-out: IC50 [nM] KB 3.1 (Folate-Ratjadone Conjugates)
Procedure: KB 3.1 (DSMZ ACC 158) cells were cultivated at 37° C. and 10% C002 in RMPI-medium without folic acid (Gibco) with 10% fetal calf serum (Gibco). 120 μL of suspended cells (100.000/mL) were seeded in wells of 96-well plates and after 24 h at 37° C. and 10% CO2 the medium was removed, the cells were washed with PBS and RPMI-medium without folic acid (Gibco)+10% dialyzed fetal calf serum (Sigma) were added to the cells, before after additional 24 h at 37° C. and 10% C002 60 μL of serial dilutions of the test compound were given to cells. After 1, 2 and 5 days of incubation growth inhibition (IC50) was determined using an MTT assay.^[64]

[6] = read-out: IC50 [nM] A-549, growth inhibition, 5 days of incubation, MTT assay
[7] = read-out: IC50 [nM] MCF-7, growth inhibition, 5 days of incubation, MTT assay
[8] = read-out: IC50 [nM] SK-OV-3, growth inhibition, 5 days of incubation, MTT assay
[9] = HeLa cells stably expressing translocation biosensor, 1h of incubation, read-out: IC50 [nM] CRM1 (nuclear export inhibition)
[10] = read-out: IC50 [nM] KB-3.1, growth inhibition, 5 days of incubation, MTT assay

T1 sequence (O14980 whole entry): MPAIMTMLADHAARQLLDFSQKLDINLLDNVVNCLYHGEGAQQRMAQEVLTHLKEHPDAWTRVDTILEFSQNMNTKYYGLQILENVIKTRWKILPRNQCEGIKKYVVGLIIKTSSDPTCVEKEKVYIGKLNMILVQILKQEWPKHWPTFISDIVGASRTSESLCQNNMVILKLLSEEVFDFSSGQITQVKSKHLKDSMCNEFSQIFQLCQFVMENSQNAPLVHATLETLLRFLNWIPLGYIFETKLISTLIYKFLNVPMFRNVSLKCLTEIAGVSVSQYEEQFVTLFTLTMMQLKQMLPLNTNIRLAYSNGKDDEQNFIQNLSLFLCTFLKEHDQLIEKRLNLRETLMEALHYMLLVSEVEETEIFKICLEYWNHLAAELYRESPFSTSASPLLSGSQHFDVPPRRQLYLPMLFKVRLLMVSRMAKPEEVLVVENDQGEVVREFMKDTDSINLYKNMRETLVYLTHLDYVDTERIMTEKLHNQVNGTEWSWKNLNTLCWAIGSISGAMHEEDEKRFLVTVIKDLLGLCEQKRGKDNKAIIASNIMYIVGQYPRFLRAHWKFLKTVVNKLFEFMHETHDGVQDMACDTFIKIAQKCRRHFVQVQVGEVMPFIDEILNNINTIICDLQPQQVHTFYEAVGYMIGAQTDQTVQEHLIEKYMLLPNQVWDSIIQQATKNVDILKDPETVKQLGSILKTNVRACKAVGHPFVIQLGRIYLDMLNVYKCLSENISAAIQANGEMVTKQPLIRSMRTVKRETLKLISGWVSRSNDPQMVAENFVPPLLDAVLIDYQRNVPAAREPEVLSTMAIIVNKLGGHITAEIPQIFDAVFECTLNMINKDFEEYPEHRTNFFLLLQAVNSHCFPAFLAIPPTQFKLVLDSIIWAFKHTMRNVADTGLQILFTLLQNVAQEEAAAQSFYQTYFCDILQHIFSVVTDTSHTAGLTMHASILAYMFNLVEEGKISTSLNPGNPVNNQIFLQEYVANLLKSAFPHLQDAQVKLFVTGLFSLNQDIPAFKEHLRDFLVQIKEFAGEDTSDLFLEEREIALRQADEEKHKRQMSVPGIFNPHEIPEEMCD

SMILES | IC50 [1, 6] | IC50 [2, 7] | IC50 [3, 8] | IC50 (CRM1; [9]) | IC50 [4, 10] | IC50 (CRM1) | further results
C/C=C/[C@@H]1O[C@H]([C@@H](/C=C/C=C(\C)C[C@@H](C)/C=C(C)\C=C\[C@H]2CC=CC(=O)O2)NC(=O)CCSSc2ccccn2)C[C@@H](O)[C@@H]1C [2-PySS(CH2)2(CO)NH-Ratja 35, N-((1R,2E,4E,7R,8Z,10E)-1-((2S,4R,5S,6S)-4-Hydroxy-5-methyl-6-((E)-prop-1-en-1-yl)tetrahydro-2H-pyran-2-yl)-5,7,9-trimethyl-11-((R)-6-oxo-3,6-dihydro-2H-pyran-2-yl)undeca-2,4,8,10-tetraen-1-yl)-3-(pyridin-2-yldisulfaneyl)propanamide] | 30.6 nM | 26 nM | 24.6 nM | 44.1 nM | 8.8 nM |  | 
C/C=C/[C@@H]1O[C@H](C(=O)/C=C/C=C(\C)C[C@@H](C)/C=C(C)\C=C\[C@H]2CC=CC(=O)O2)CC(=O)[C@@H]1C [16,19-Dioxo-Ratjadone 10, (R)-6-((R,1E,3Z,7E,9E)-3,5,7-trimethyl-11-((2S,5R,6S)-5-methyl-4-oxo-6-((E)-prop-1-en-1-yl)tetrahydro-2H-pyran-2-yl)-11-oxoundeca-1,3,7,9-tetraen-1-yl)-5,6-dihydro-2H-pyran-2-one] | 9.72 nM | 2.87 nM | 1.59 nM | 17.5 nM | 3.98 nM |  | 
C/C=C/[C@@H]1O[C@H]([C@H](/C=C/C=C(\C)C[C@@H](C)/C=C(C)\C=C\[C@H]2CC=CC(=O)O2)NC(=O)OC)C[C@@H](O)[C@@H]1C [16R-Amino-Ratjadone methyl carbamate 19, methyl ((1S,2E,4E,7R,8Z,10E)-1-((2S,4R,5S,6S)-4-hydroxy-5-methyl-6-((E)-prop-1-en-1-yl)tetrahydro-2H-pyran-2-yl)-5,7,9-trimethyl-11-((R)-6-oxo-3,6-dihydro-2H-pyran-2-yl)undeca-2,4,8,10-tetraen-1-yl)carbamate] |  |  |  |  | 2.53 nM | 12.5 nM | 
C/C=C/[C@@H]1O[C@H]([C@@H](/C=C/C=C(\C)C[C@@H](C)/C=C(C)\C=C\[C@H]2CC=CC(=O)O2)NC(=O)OC)C[C@@H](O)[C@@H]1C [16S-Amino-Ratjadone methyl carbamate 20, methyl ((1R,2E,4E,7R,8Z,10E)-1-((2S,4R,5S,6S)-4-hydroxy-5-methyl-6-((E)-prop-1-en-1-yl)tetrahydro-2H-pyran-2-yl)-5,7,9-trimethyl-11-((R)-6-oxo-3,6-dihydro-2H-pyran-2-yl)undeca-2,4,8,10-tetraen-1-yl)carbamate] |  |  |  |  | 8.18 nM | 23.5 nM | 
C/C=C/[C@@H]1O[C@H]([C@@H](/C=C/C=C(\C)C[C@@H](C)/C=C(C)\C=C\[C@H]2CC=CC(=O)O2)NC(=O)OCc2ccc(NC(=O)[C@H](CCCNC(N)=O)NC(=O)[C@@H](NC(=O)OC[C@@H]3[C@@H]4CCC#CCC[C@@H]43)C(C)C)cc2)C[C@@H](O)[C@@H]1C [BCN—O(CO)HN-Val-Cit-PABO(CO)NH-Ratja 31, ((1R,8S,9s)-bicyclo[6.1.0]non-4-yn-9-yl)methyl ((S)-1-(((S)-1-((4-(((((1R,2E,4E,7R,8Z,10E)-1-((2S,4R,5S,6S)-4-hydroxy-5-methyl-6-((E)-prop-1-en-1-yl)tetrahydro-2H-pyran-2-yl)-5,7,9-trimethyl-11-((R)-6-oxo-3,6-dihydro-2H-pyran-2-yl)undeca-2,4,8,10-tetraen-1-yl)carbamoyl)oxy)methyl)phenyl)amino)-1-oxo-5-ureidopentan-2-yl)amino)-3-methyl-1-oxobutan-2-yl)carbamate] | 39.5 nM | 20.2 nM | 34.7 nM |  | 25.1 nM | 346 nM | 
C#CCCOC(=O)N[C@H](C(=O)N[C@@H](CCCNC(N)=O)C(=O)Nc1ccc(COC(=O)N[C@H](/C=C/C=C(\C)C[C@@H](C)/C=C(C)\C=C\[C@H]2CC=CC(=O)O2)[C@@H]2C[C@@H](O)[C@H](C)[C@H](/C=C/C)O2)cc1)C(C)C [But-3-yn-1-yl ((S)-1-(((S)-1-((4-(((((1R,2E,4E,7R,8Z,10E)-1-((2S,4R,5S,6S)-4-hydroxy-5-methyl-6-((E)-prop-1-en-1-yl)tetrahydro-2H-pyran-2-yl)-5,7,9-trimethyl-11-((R)-6-oxo-3,6-dihydro-2H-pyran-2-yl)undeca-2,4,8,10-tetraen-1-yl)carbamoyl)-oxy)methyl)phenyl)amino)-1-oxo-5-ureidopentan-2-yl)amino)-3-methyl-1-oxobutan-2-yl)carbamate] |  |  |  |  |  |  | IC50 ([1]; growth inhibition, 5 days of incubation, MTT assay, read-out: IC50 [nM] A-549): 25.1 nM; IC50 ([2]; growth inhibition, 5 days of incubation, MTT assay, read-out: IC50 [nM] MCF-7): 12.5 nM; IC50 ([3]; growth inhibition, 5 days of incubation, MTT assay, read-out: IC50 [nM] SK-OV-3): 13.6 nM; IC50 ([4]; read-out: IC50 [nM] KB-3.1): 9.2 nM
C#CCCC(=O)N[C@H](/C=C/C=C(\C)C[C@@H](C)/C=C(C)\C=C\[C@H]1CC=CC(=O)O1)[C@@H]1C[C@@H](O)[C@H](C)[C@H](/C=C/C)O1 [Compound 22, N-((1R,2E,4E,7R,8Z,10E)-1-((2S,4R,5S,6S)-4-hydroxy-5-methyl-6-((E)-prop-1-en-1-yl)tetrahydro-2H-pyran-2-yl)-5,7,9-trimethyl-11-((R)-6-oxo-3,6-dihydro-2H-pyran-2-yl)undeca-2,4,8,10-tetraen-1-yl)pent-4-ynamide] | 0.58 nM | 0.4 nM | 0.44 nM | 23.2 nM | 1.05 nM |  | 
C/C=C/[C@@H]1O[C@H]([C@@H](/C=C/C=C(\C)C[C@@H](C)/C=C(C)\C=C\[C@H]2CC=CC(=O)O2)NC(=O)CCSSC[C@H](NC(=O)CC[C@H](NC(=O)c2ccc(NCc3cnc4nc(N)nc(O)c4n3)cc2)C(=O)O)C(=O)O)C[C@@H](O)[C@@H]1C [FA-SS-16R-Aminoratjadone, N^2-(4-(((2-amino-4-hydroxypteridin-6-yl)methyl)amino)benzoyl)-N^5-((R)-1-carboxy-2-((3-(((1R,2E,4E,7R,8Z,10E)-1-((2S,4R,5S,6S)-4-hydroxy-5-methyl-6-((E)-prop-1-en-1-yl)tetrahydro-2H-pyran-2-yl)-5,7,9-trimethyl-11-((R)-6-oxo-3,6-dihydro-2H-pyran-2-yl)undeca-2,4,8,10-tetraen-1-yl)amino)-3-oxopropyl)disulfaneyl)ethyl)-L-glutamine] |  |  |  |  |  |  | IC50 [5]: 295 nM
C#CCCC(=O)NCCSSCCC(=O)N[C@H](/C=C/C=C(\C)C[C@@H](C)/C=C(C)\C=C\[C@H]1CC=CC(=O)O1)[C@@H]1C[C@@H](O)[C@H](C)[C@H](/C=C/C)O1 [N-(2-((3-(((1R,2E,4E,7R,8Z,10E)-1-((2S,4R,5S,6S)-4-hydroxy-5-methyl-6-((E)-prop-1-en-1-yl)tetrahydro-2H-pyran-2-yl)-5,7,9-trimethyl-11-((R)-6-oxo-3,6-dihydro-2H-pyran-2-yl)undeca-2,4,8,10-tetraen-1-yl)amino)-3-oxopropyl)disulfaneyl)-ethyl)pent-4-ynamide] | 0.86 nM | 0.17 nM | 1.09 nM |  | 1.86 nM |  | 
